From US5807827A, “Des-Tyr dynorphin analogues” (Des-Tyr Dynorphin Partnership, priority 1997, dated 1998)
Ends that are not written are not given here.

Key:
[1] = tested on: hosts tolerant to narcotic analgesic; details: cited from earlier work
[2] = tested on: macrophage-colony stimulating factor; details: mice treated with chronic morphine; cited from earlier work
opioid receptor = details: cited from earlier work
[3] = tested on: morphine tolerant (addicted) animals; test: Naloxone-precipitated narcotic withdrawal (withdrawal jumping) in morphine pellet-implanted animals; format: in vivo, mice
Method: Morphine tolerance was established by implanting morphine pellets, 75 mg base, subcutaneously by the method of Way et al., J. Pharmac. Exp. Ther., 167, pp. 1-8 (1969), incorporated herein by reference. The drug used was morphine sulfate (Mallinckrodt Chemical Works, St. Louis, Mo.). The ED50 values, their 95% confidence limits and significance of the potency ratio between two ED50. values were determined by the method of Litchfield and Wilcoxon, J. Pharmac. Exp. Ther., 96, 99-113 (1949), incorporated herein by reference.
The morphine tolerant (addicted) animals had pellets implanted for three days. The animals were then challenged with naloxone doses (while the morphine pellet remained in place). […] Table 1 summarizes the data for the control animals and for groups of animals treated with three different peptides. Each peptide was in a dose of 5 μmol/kg i.v. before administration of the naloxone.
However, when any of the three peptides shown in Table 1 was administered five minutes before administration of the naloxone, then much more naloxone was needed to precipitate the animal into a state of narcotic withdrawal. This means that each of the three peptides shown in Table 1 caused the addicted animal to be not as dependent on morphine as it would be without such pretreatment.
The animals and test procedures used were analogous to those described in Example 1. […]

[4] = tested on: morphine tolerant (that is, addicted) mice; test: Tail-flick antinociceptive activity of morphine in morphine tolerant animals; format: in vivo; details: control 2: addicted animals, no peptide
Method: (§1) Analgesia was measured by the tail-flick method of D'Amour and Smith, J. Pharmac. Exp. Ther. , 72, pp. 74-79 (1941), incorporated herein by reference, as modified by Tulunay and Takemori, J. Pharmac. Exp. Ther., 190, pp. 395-400 (1974), incorporated herein by reference. For ED50 (e.g., effective does for 50% of the test group) determinations, the animals' responses were made quantal by establishing an endpoint which represented a significant increase in reaction time. The endpoint was an increase in reaction time of an individual animal of greater than 3 SD (e.g., standard deviation) of the control mean reaction time for all animals used in the assay. The usual control mean reaction time was 3.1±0.05 sec. Nonresponding animals were removed from the heat stimulus when reaction time exceeded 10 sec. to avoid tail damage.
(§2) Drugs were injected 30 minutes prior to testing, unless otherwise indicated. Morphine was injected subcutaneously (s.c.) whereas the peptides were injected (i.v.) in […] saline.
(§3) Morphine tolerance was established by implanting morphine pellets, 75 mg base, subcutaneously by the method of Way et al., J. Pharmac. Exp. Ther., 167, pp. 1-8 (1969), incorporated herein by reference. The drug used was morphine sulfate (Mallinckrodt Chemical Works, St. Louis, Mo.). […]

[5] = tested on: naive, unaddicted (that is, normal) animals; test: Tail-flick antinociceptive activity of morphine in naive animals; format: in vivo, mice; details: control 1: naive, no peptide
Method: as §1, §2, §3

## Tyr-Gly-Gly-Phe-Leu-Arg-Arg-Ile-Arg-Pro-Lys-Leu-Lys (YGGFLRRIRPKLK) [SEQ ID NO:2]
[1]
  Effect on analgesic effect of narcotic analgesic: potentiates the analgesic effect in tolerant hosts
[2]
  Block of opioid inhibition of macrophage-colony stimulating factor: block the opioid inhibition of macrophage-colony stimulating factor of morphine in a dose-dependent manner

## Gly-Gly-Phe-Leu-Arg-Arg-Ile-Arg-Pro-Lys-Leu-Lys [des-Tyr Dyn A (1-13)]
Opioid receptor
  Competition in assays with various ligands: did not compete at all

## C=CCN1CC[C@]23c4c5ccc(O)c4O[C@H]2C(=O)CC[C@@]3(O)[C@H]1C5 [Naloxone, naloxone]
[3]; Mus musculus, control addicted animals, no peptide (base line)
  ED50: 79 µmol/kg

## CN1CC[C@]23c4c5ccc(O)c4O[C@H]2[C@@H](O)C=C[C@H]3[C@H]1C5 [Morphine, morphine]
[4]; relative to naive control
  Tolerance Index: 8.5 (5.7-12.--)
[4]; tail flick
  Morphine ED50: 55.6 (42.6-73.5) μmol/kg s.c.
[5]
  Morphine ED50: 6.5 (5.0-8.9) μmol/kg s.c.

## Tyr-Gly-Gly-Phe-Leu-Arg-Arg-Ile-Arg-Pro (YGGFLRRIRP-NH2) [SEQ ID NO:3]
[2]
  Block of opioid inhibition of macrophage-colony stimulating factor: block the opioid inhibition of macrophage-colony stimulating factor of morphine in a dose-dependent manner

## GFLRRIRPKLK [Dyn (3-13), Gly-Phe-Leu-Arg-Arg-Ile-Arg-Pro-Lys-Leu-Lys]
[3]; Example 3
  Observed behaviour of treated animals: lethargic and exhibited partial paralysis of their hind quarters
